Test results reported in ChEMBL document CHEMBL3576770, “Spirotetronate polyketides as leads in drug discovery” (J Nat Prod, 2015).
One block for each compound: values may come before it.

Legend:
[1] = Toxicity in ip dosed ICR mouse implanted with mouse EAC; format: organism-based; details: in vivo
[2] = target: T1, Gastrin/cholecystokinin type B receptor (Rattus norvegicus, UniProt P30553); experiment: Inhibition of CCK-B receptor in rat cerebral cortex; format: tissue-based
T1 sequence (P30553 whole entry): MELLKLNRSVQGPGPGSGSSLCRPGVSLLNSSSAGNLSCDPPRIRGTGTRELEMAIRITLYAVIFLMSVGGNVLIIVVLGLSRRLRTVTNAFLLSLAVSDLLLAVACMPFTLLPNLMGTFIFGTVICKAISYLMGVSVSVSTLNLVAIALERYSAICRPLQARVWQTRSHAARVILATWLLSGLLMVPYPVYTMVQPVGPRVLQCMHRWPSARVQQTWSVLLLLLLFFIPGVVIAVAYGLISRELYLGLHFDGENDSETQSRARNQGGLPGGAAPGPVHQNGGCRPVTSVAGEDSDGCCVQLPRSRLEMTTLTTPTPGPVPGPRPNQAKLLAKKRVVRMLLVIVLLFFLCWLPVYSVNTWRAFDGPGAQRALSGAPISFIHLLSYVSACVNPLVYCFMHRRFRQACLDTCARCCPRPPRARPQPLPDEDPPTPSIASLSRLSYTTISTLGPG

[3] = tested on: B16; experiment: Cytotoxicity against mouse B16 cells; format: functional
[4] = tested on: P388; experiment: Cytotoxicity against mouse P388 cells; format: functional, cell-based
[5] = tested on: Staphylococcus aureus; experiment: Antimicrobial activity against methicillin-resistant Staphylococcus aureus assessed as inhibition of microbial proliferation; format: functional
[6] = Inhibition of gastric ATPase (unknown origin); format: tissue-based, Homo sapiens, Stomach
[7] = tested on: L1210; experiment: Cytotoxicity against mouse L1210 cells; format: functional, cell-based
[8] = Antitumor activity against mouse EAC implanted in ddy-SLC mouse at 2.5 mg/kg, ip qd administered day 1 to 5 starting 24 hrs post tumor implantation; format: functional, Ehrlich

Compound: COc1ccc(Cl)c(C)c1C(=O)O[C@@H]1C[C@H](O[C@H]2[C@H](C)O[C@@H](O[C@H]3CCC[C@@H]4[C@@H]3C=C[C@H]3CCCC/C=C/[C@@H]5C=C(C(=O)O)[C@H](C)C[C@]56OC(=O)C(=C6O)OC(=O)[C@@]43C)C(O)[C@@H]2O)O[C@H](C)[C@H]1O (stereo not given in full)
LD50 [1]: 295 mg/kg

IC50 [2]: 3.6 nM
Compound: CC1=CC2C/C=C/C=C/CC(O)C/C=C/CC(C)C3C(CSC3C(=O)C(=O)O)C(=O)C3=C(O)C2(CC1C)OC3=O (stereo not given)

Compound: COC(=O)N[C@@H]1[C@H](C)O[C@@H](O[C@H]2C/C=C(\C)[C@@H]3C=C[C@@H]4[C@@H](O[C@H]5C[C@H](O[C@@H]6CC[C@H](C)[C@@H](O[C@H]7C[C@H](O)[C@H](O[C@@H]8CC[C@H](O)[C@@H](C)O8)[C@@H](C)O7)O6)[C@H](OC(C)=O)[C@@H](C)O5)[C@@H](C)C[C@H](C)[C@H]4[C@]3(C)C(=O)C3=C(O)[C@@]4(CC(C=O)=C[C@H](O)[C@H]4/C=C/2C)OC3)C[C@@]1(C)N
INH [3]: 25 µg/mL
INH [4]: 6.25 µg/mL

Compound: C[C@@H]1C[C@H](C)C(=O)/C=C/[C@@H]2[C@@H](O)[C@H]3OC4=C(C(=O)O[C@@]42C[C@H]3C)C1=O (single isomer, unassigned; atropisomer)
MIC [5]: 3.5 µg/mL

Compound: C[C@@H]1C[C@H](C)C(=O)/C=C/[C@@H]2[C@@H](O)[C@H]3OC4=C(C(=O)O[C@@]42C[C@H]3C)C1=O
MIC ([5]; Staphylococcus aureus, read-out: MIC): 5.2 µg/mL

IC50 [6]: 500 nM
Compound: CC[C@@H]1C[C@]23OC(=O)C(=C2O)[C@@H](O)[C@@H](C)C[C@H](C)CCC[C@]3(C)C=C1C

Compound: C=C1C(=O)[C@]2(C)C(=O)O[C@@]34C[C@H](C)C(C(=O)O)=C[C@@H]3CCC[C@@H](C)C[C@@H](C)[C@H]1OC24
IC50 [7]: 216 nM
T/C [8]: 145.7%
IC50 ([4]; Mus musculus, P388): 89 nM
